From patent publication US20120252801A1, “ANTIFUNGAL COMPOUNDS” (Katholieke Universiteit Leuven, K.U.Leuven R&D, priority 2009, published 2012)
≈ marks a conversion by molar mass, not a printed value.

What was measured:
C. albicans SC5314 = assay: Minimal fungicidal concentration (MFC) against C. albicans; format: cell-based; details: Candida albicans, 24 h at 37° C. in PBS, less than 1% survival relative to DMSO control
Description: (§1) Two-fold dilution series of the compounds were prepared in 50% DMSO. 5 μl of these series were added to 95 μl PBS buffer inoculated with 1/500 cells of an overnight culture of either C. albicans, C. glabrata or C. krusei (final DMSO conc 2%). 2% DMSO served as negative control. After 24 h incubation at 37° C. of these cultures with the antifungal compounds in PBS, the cell cultures were plated on YPD agar and colony forming units (CFUs) were determined after incubation of the plates for 2 days. MFC was determined as the minimal concentration of a compound resulting in less than 1% survival of the yeast culture relative to the DMSO control.

C. glabrata = assay: Minimal fungicidal concentration (MFC) against C. glabrata; format: cell-based, Candida glabrata; details: Nakaseomyces glabratus; 24 h at 37° C. in PBS; less than 1% survival relative to DMSO control
Description: as §1

A. fumigatus = assay: Minimal inhibitory concentration (MIC) against A. fumigatus; format: cell-based; details: Aspergillus fumigatus; minimal concentration that inhibits growth
Aspergillus flavus = assay: Minimal inhibitory concentration (MIC) against A. flavus; format: cell-based; details: 24 h at 25° C. in ½ PDB, minimal concentration that inhibits growth
Description: (§2) To determine the MIC and MFC of a compound against Aspergillus flavus, Fusarium oxysporum or F. culmorum, a 2-fold dilution series of the compounds of the invention was incubated with the corresponding spore suspension in ½ PDB (potato dextrose broth, Difco) (2×10^4 spores/ml). […] MFC was determined as the minimal concentration of a compound resulting in less than 1% survival of the fungal culture relative to the DMSO control.

Fusarium oxysporum = assay: Minimal inhibitory concentration (MIC) against F. oxysporum; format: cell-based; details: 24 h at 25° C. in ½ PDB, minimal concentration that inhibits growth
Description: as §2

| SMILES | MIC (A. fumigatus) [µg/mL] | MIC (Aspergillus flavus) [µg/mL] | MIC (Fusarium oxysporum) [µg/mL] | MFC (C. albicans SC5314) [µg/mL] | MFC (C. glabrata) [µg/mL] |
| --- | --- | --- | --- | --- | --- |
| CCN1CC(c2ccccc2)OC(=O)C1CC(=O)Nc1ccc(C(C)C)cc1 (stereo not shown) [CPD-01, 2-(4-ethyl-2-oxo-6-phenylmorpholin-3-yl)-N-(4-isopropylphenyl)acetamide] | 0.8 (≈ 2.1 µM) | 12.5 (≈ 32.9 µM) | – | 12.5 (≈ 32.9 µM) | 12.5 (≈ 32.9 µM) |
| CCN1C[C@H](c2ccccc2)OC(=O)C1CC(=O)Nc1ccc(C(C)C)cc1 (stereo partly drawn) [CPD-02, 2-((6S)-4-ethyl-2-oxo-6-phenylmorpholin-3-yl)-N-(4-isopropylphenyl)acetamide] | 0.8 (≈ 2.1 µM) | 6.25 (≈ 16.4 µM) | – | 12.5 (≈ 32.9 µM) | 12.5 (≈ 32.9 µM) |
| CCN1C[C@@H](C)OC(=O)C1CC(=O)Nc1ccc(C(C)C)cc1 (stereo partly drawn) [CPD-05, 2-((6R)-4-ethyl-6-methyl-2-oxomorpholin-3-yl)-N-(4-isopropylphenyl)acetamide] | 0.8 (≈ 2.51 µM) | 6.25 (≈ 19.6 µM) | – | 12.5 (≈ 39.3 µM) | 6.25 (≈ 19.6 µM) |
| CCN1CC(C)(C)OC(=O)C1CC(=O)NC1CCc2ccccc21 (stereo not shown) [CPD-09, N-(2,3-dihydro-1H-inden-1-yl)-2-(4-ethyl-6,6-dimethyl-2-oxomorpholin-3-yl)acetamide] | 50 (≈ 151 µM) | > 50 | > 50 | 25 (≈ 75.7 µM) | 50 (≈ 151 µM) |
| CCN1CC(C)(C)OC(=O)C1CC(=O)NCc1ccccc1Cl (stereo not shown) [CPD-57, N-(2-chlorobenzyl)-2-(4-ethyl-6,6-dimethyl-2-oxomorpholin-3-yl)acetamide] | – | – | – | 25 (≈ 73.8 µM) | – |
| CCN1CC(C)(C)OC(=O)C1CC(=O)NCc1ccccc1C (stereo not shown) [CPD-69, 2-(4-ethyl-6,6-dimethyl-2-oxomorpholin-3-yl)-N-(2-methylbenzyl)acetamide] | – | – | – | 25 (≈ 78.5 µM) | – |
| CCN1CC(C)(C)OC(=O)C1CC(=O)NCc1cccc(C)c1 (stereo not shown) [CPD-70, 2-(4-ethyl-6,6-dimethyl-2-oxomorpholin-3-yl)-N-(3-methylbenzyl)acetamide] | – | – | – | 25 (≈ 78.5 µM) | – |
| CCN1CC(C)(C)OC(=O)C1CC(=O)NCc1ccc(C(F)(F)F)cc1 (stereo not shown) [CPD-71, 2-(4-ethyl-6,6-dimethyl-2-oxomorpholin-3-yl)-N-(4-(trifluoromethyl)benzyl)acetamide] | – | – | – | 25 (≈ 67.1 µM) | – |
| CCN1CC(C)(C)OC(=O)C1CC(=O)NCc1ccc(OC)cc1 (stereo not shown) [CPD-72, 2-(4-ethyl-6,6-dimethyl-2-oxomorpholin-3-yl)-N-(4-methoxybenzyl)acetamide] | – | – | – | 25 (≈ 74.8 µM) | – |
| CCN1CC(C)(C)OC(=O)C1CC(=O)NCc1ccc(-c2ccccc2)cc1 (stereo not shown) [CPD-73, N-(biphenyl-4-ylmethyl)-2-(4-ethyl-6,6-dimethyl-2-oxomorpholin-3-yl)acetamide] | – | – | – | 25 (≈ 65.7 µM) | – |

The next lines start with results.

| MIC (A. fumigatus) [µg/mL] | MIC (Aspergillus flavus) [µg/mL] | MIC (Fusarium oxysporum) [µg/mL] | SMILES | MFC (C. albicans SC5314) [µg/mL] | MFC (C. glabrata) [µg/mL] |
| --- | --- | --- | --- | --- | --- |
| 0.8 (≈ 2.51 µM) | 6.25 (≈ 19.6 µM) | – | CCN1C[C@H](C)OC(=O)C1CC(=O)Nc1ccc(C(C)C)cc1 (stereo partly drawn) [CPD-03, 2-((6S)-4-ethyl-6-methyl-2-oxomorpholin-3-yl)-N-(4-isopropylphenyl)acetamide] | 12.5 (≈ 39.3 µM) | 6.25 (≈ 19.6 µM) |
| 0.8 (≈ 2.1 µM) | 12.5 (≈ 32.9 µM) | – | CCN1C[C@@H](c2ccccc2)OC(=O)C1CC(=O)Nc1ccc(C(C)C)cc1 (stereo partly drawn) [CPD-04, 2-((6R)-4-ethyl-2-oxo-6-phenylmorpholin-3-yl)-N-(4-isopropylphenyl)acetamide] | 12.5 (≈ 32.9 µM) | 6.25 (≈ 16.4 µM) |
| 12.5 (≈ 36 µM) | > 50 | > 50 | CCN1CC(C)(C)OC(=O)C1CC(=O)Nc1ccc2scnc2c1 (stereo not shown) [CPD-10, N-(benzo[d]thiazol-5-yl)-2-(4-ethyl-6,6-dimethyl-2-oxomorpholin-3-yl)acetamide] | > 50 | > 50 |
| 12.5 (≈ 41.1 µM) | 50 (≈ 164 µM) | > 50 | CCN1CC(C)(C)OC(=O)C1CC(=O)NCc1ccccc1 (stereo not shown) [CPD-12, N-benzyl-2-(4-ethyl-6,6-dimethyl-2-oxomorpholin-3-yl)acetamide] | 12.5 (≈ 41.1 µM) | 25 (≈ 82.1 µM) |
| > 50 | > 50 | > 50 | CCN1CC(C)(C)OC(=O)C1CC(=O)NC1CCN(Cc2ccccc2)CC1 (stereo not shown) [CPD-14, N-(1-benzylpiperidin-4-yl)-2-(4-ethyl-6,6-dimethyl-2-oxomorpholin-3-yl)acetamide] | 25 (≈ 64.5 µM) | > 50 |
